Data set [1] deals with T1, MDDEF (mevalonate diphosphate decarboxylase from Enterococcus faecalis) (Enterococcus faecalis, UniProt Q9FD68, K187A).
T1 construct: gene mvaD
Nature of the data set: biochemical.

Data set [2] has as its target T2, MDDEF (mevalonate diphosphate decarboxylase from Enterococcus faecalis) (Enterococcus faecalis, UniProt Q9FD68).
T2 construct: gene mvaD; full-length, recombinant in E. coli BL21(DE3); N-terminal His tag removed by TEV protease (told for K187A, wild type purified similarly); residues 1-326 modelled
T2 sequence (Q9FD68 1-331): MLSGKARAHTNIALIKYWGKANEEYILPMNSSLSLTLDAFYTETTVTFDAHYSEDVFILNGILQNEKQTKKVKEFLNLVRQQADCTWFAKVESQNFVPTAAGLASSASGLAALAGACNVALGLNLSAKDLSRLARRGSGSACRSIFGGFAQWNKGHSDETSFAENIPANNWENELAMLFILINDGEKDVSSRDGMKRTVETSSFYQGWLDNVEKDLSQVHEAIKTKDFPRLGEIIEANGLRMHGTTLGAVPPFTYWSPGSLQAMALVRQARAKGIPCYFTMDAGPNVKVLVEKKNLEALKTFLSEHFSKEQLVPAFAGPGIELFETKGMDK
As to the kind of experiment: X-ray crystal structure (soaked). The format is binding. To be noted: 1.7 Å; binary complex; pH 4.6.

Substrate in data set [3]: C[C@@](O)(CCOP(=O)(O)OP(=O)(O)O)CC(=O)O
As to the kind of experiment: purified protein. Conditions: cobalt substituting for magnesium, co-substrate ATP, 100 mM HEPES pH 7.0, 100 mM KCl, 30 °C (standard assay).

Substrate in data set [4]: Nc1ncnc2c1ncn2[C@@H]1O[C@H](COP(=O)(O)OP(=O)(O)OP(=O)(O)O)[C@@H](O)[C@H]1O
Nature of the data set: purified protein. To be noted: cobalt substituting for magnesium, co-substrate MVAPP, 100 mM HEPES pH 7.0, 100 mM KCl, 30 °C (standard assay).

As a reminder, the Kd is the free concentration of one partner at which half of the binding sites on the other are occupied at equilibrium, for simple one-to-one binding. A word on the Km: it is the concentration of substrate that gives half-maximal velocity.

As to `Nc1ncnc2c1ncn2[C@@H]1O[C@H](CO[P@](=O)(O)O[P@](=O)(O)O[P@@](=O)(O)S)[C@@H](O)[C@H]1O` [ATPγS], binding in data set [1] was put at a Kd of 182 ± 36 µM.

`C[C@@](O)(CCOP(=O)(O)OP(=O)(O)O)CC(=O)O` [MVAPP, mevalonate-5-diphosphate]: in data set [2], the “X-ray crystal structure (soaked)” value is “MDDEF-MVAPP: 6E2T”.

B1: MDDEF (mevalonate diphosphate decarboxylase from Enterococcus faecalis) (Enterococcus faecalis) (protein)
chain: T2 sequence (Q9FD68 1-331)
For B1, the Km in the data set “purified protein [3]” is 39.3 ± 4.0 µM; in “purified protein [4]”, 188 ± 13 µM.

These data come from publication PMC7414129, “Visualizing the enzyme mechanism of mevalonate diphosphate decarboxylase” (Nature Communications, 2020).
